Assay results as given in PubChem BioAssay AID194 (DTP/NCI, 2004).
Where “and” joins values, the source holds several entries; their conditions need not be identical. Identical values can stand only once. Records with an inconclusive call do not appear. Rule for the calls: active = survival T/C of 150% or more; inactive = T/C below 125% in these data.

Tested on: BDF1 mice, B16 melanoma s.c., survival/tumor T/C
Test: NCI In Vivo Anticancer Drug Screen. Data for tumor model B16 Melanoma (subcutaneous) in B6D2F1 (BDF1) mice
Conditions: endpoint: median survival time, higher = longer survival
Procedure: The antitumor activity of compounds was measured in mice bearing transplantable tumors. Survival or tumor size were measured and the results are expressed as the measurement made in the treated group (T) divided by the measurement made in the vehicle treated control group (C). The tumor model used in this assay is B16 Melanoma (subcutaneous) in B6D2F1 (BDF1) mice

[1] = dose: 0.25 mg/kg/injection, schedule: Q01DX009 (ip), vehicle: saline
[2] = dose: 0.5 mg/kg/injection, schedule: Q01DX009 (ip), vehicle: saline
[3] = dose: 1.0 mg/kg/injection, schedule: Q01DX009 (ip), vehicle: saline
[4] = dose: 8.0 mg/kg/injection, schedule: Q01DX009 (ip), vehicle: saline
[5] = dose: 16.0 mg/kg/injection, schedule: Q01DX009 (ip), vehicle: saline
[6] = dose: 32.0 mg/kg/injection, schedule: Q01DX009 (ip), vehicle: saline

Measured: T/C

Nc1ncnc2c1ccn2C1OC(CO)C(O)C1O (stereo unspecified)
inactive: [1] 111 % of control | dose: 0.5 mg/kg/injection, schedule: Q01DX009 (ip), vehicle: Klucel (hydroxypropylcellulose) (HPC) 106 % of control | [2] 106 % of control | dose: 1.0 mg/kg/injection, schedule: Q01DX009 (ip), vehicle: Klucel (hydroxypropylcellulose) (HPC) 110 % of control | [3] 99 % of control

COc1cccc2c1C(=O)c1c(O)c3c(c(O)c1C2=O)C[C@@](O)(C(=O)CO)C[C@@H]3OC1CC(N)C(O)C(C)O1 (stereo partly specified)
inactive: dose: 0.12 mg/kg/injection, schedule: Q01DX009 (ip), vehicle: saline 100 % of control and 111 % of control | dose: 1.0 mg/kg/injection, schedule: Q01DX008 (ip), vehicle: saline 100 % of control | dose: 1.5 mg/kg/injection, schedule: Q01DX008 (ip), vehicle: saline 96 % of control

COc1cc2c[n+](C)c3c4cc5c(cc4ccc3c2cc1OC)OCO5
inactive: dose: 3.12 mg/kg/injection, schedule: Q01DX009 (ip), vehicle: Klucel (hydroxypropylcellulose) (HPC) 107 % of control | dose: 6.25 mg/kg/injection, schedule: Q01DX009 (ip), vehicle: Klucel (hydroxypropylcellulose) (HPC) 96 % of control | dose: 12.5 mg/kg/injection, schedule: Q01DX009 (ip), vehicle: Klucel (hydroxypropylcellulose) (HPC) 116 % of control

COc1cc(NS(C)(=O)=O)ccc1Nc1c2ccccc2nc2ccccc12
inactive: dose: 0.5 mg/kg/injection, schedule: Q01DX009 (ip), vehicle: other 103 % of control | dose: 1.0 mg/kg/injection, schedule: Q01DX009 (ip), vehicle: other 98 % of control | dose: 2.0 mg/kg/injection, schedule: Q01DX009 (ip), vehicle: other 89 % of control | dose: 2.0 mg/kg/injection, schedule: Q01DX009 (ip), vehicle: saline with Tween-80 102 % of control | dose: 3.0 mg/kg/injection, schedule: Q01DX009 (ip), vehicle: saline with Tween-80 101 % of control | dose: 4.5 mg/kg/injection, schedule: Q01DX009 (ip), vehicle: saline with Tween-80 98 % of control | dose: 9.0 mg/kg/injection, schedule: Q04DX003 (ip), vehicle: saline with Tween-80 89 % of control | dose: 13.0 mg/kg/injection, schedule: Q04DX003 (ip), vehicle: saline with Tween-80 108 % of control | dose: 20.0 mg/kg/injection, schedule: Q01DX001 (ip), vehicle: saline with Tween-80 101 % of control | dose: 20.0 mg/kg/injection, schedule: Q04DX003 (ip), vehicle: saline with Tween-80 98 % of control | dose: 30.0 mg/kg/injection, schedule: Q01DX001 (ip), vehicle: saline with Tween-80 107 % of control | dose: 45.0 mg/kg/injection, schedule: Q01DX001 (ip), vehicle: saline with Tween-80 107 % of control

CS(C)=O
inactive: dose: 1.5 grams/kg/injection, schedule: Q01DX009 (ip), vehicle: saline 105 % of control | dose: 3.0 grams/kg/injection, schedule: Q01DX009 (ip), vehicle: saline 109 % of control and 111 % of control | dose: 6.0 grams/kg/injection, schedule: Q01DX009 (ip), vehicle: saline 96 % of control and 108 % of control

CCC(=O)OCC(=O)[C@]1(O)Cc2c(O)c3c(c(O)c2[C@@H](OC2CC(N)C(O)C(C)O2)C1)C(=O)c1c(OC)cccc1C3=O (stereo partly specified)
inactive: [1] 90 % of control | [2] 118 % of control | [3] 102 % of control

CCC1=C(C[C@H]2NCCc3cc(OC)c(OC)cc32)C[C@H]2c3cc(OC)c(OC)cc3CCN2C1
inactive: dose: 2.0 mg/kg/injection, schedule: Q01DX005 (ip), vehicle: saline 87 % of control | dose: 4.0 mg/kg/injection, schedule: Q01DX005 (ip), vehicle: saline 93 % of control | dose: 8.0 mg/kg/injection, schedule: Q01DX005 (ip), vehicle: saline 110 % of control | dose: 16.0 mg/kg/injection, schedule: Q01DX005 (ip), vehicle: saline 114 % of control

COc1cccc2c1C(=O)c1c(O)c3c(c(O)c1C2=O)CC(O)(C(=O)CO)CC3OC1CC(N)C(O)C(C)O1 (stereo unspecified)
inactive: dose: 2.9 mg/kg/injection, schedule: Q01DX009 (ip), vehicle: saline 103 % of control | dose: 5.8 mg/kg/injection, schedule: Q01DX009 (ip), vehicle: saline 107 % of control

N[C@H](C(=O)O)[C@H]1ON=C(Cl)[C@@H]1O
inactive: [4] 113 % of control | [5] 114 % of control | [6] 108 % of control | dose: 128.0 mg/kg/injection, schedule: Q01DX009 (ip), vehicle: saline 114 % of control | dose: 256.0 mg/kg/injection, schedule: Q01DX009 (ip), vehicle: saline 114 % of control | dose: 500.0 mg/kg/injection, schedule: Q01DX009 (ip), vehicle: saline with Tween-80 117 % of control

O=C1CSC(=S)N1c1ccco1
inactive: dose: 50.0 mg/kg/injection, schedule: Q01DX009 (ip), vehicle: Klucel (hydroxypropylcellulose) (HPC) 111 % of control | dose: 400.0 mg/kg/injection, schedule: Q01DX009 (ip), vehicle: Klucel (hydroxypropylcellulose) (HPC) 118 % of control

O=C1C=CC(=O)N1c1ccc(Cl)cc1
inactive: dose: 1.25 mg/kg/injection, schedule: Q01DX009 (ip), vehicle: Klucel (hydroxypropylcellulose) (HPC) 123 % of control | dose: 5.0 mg/kg/injection, schedule: Q01DX009 (ip), vehicle: Klucel (hydroxypropylcellulose) (HPC) 102 % of control | dose: 10.0 mg/kg/injection, schedule: Q01DX009 (ip), vehicle: Klucel (hydroxypropylcellulose) (HPC) 89 % of control | dose: 20.0 mg/kg/injection, schedule: Q01DX009 (ip), vehicle: Klucel (hydroxypropylcellulose) (HPC) 98 % of control

CNc1ncnc2c1cnn2C
inactive: dose: 10.0 mg/kg/injection, schedule: Q01DX009 (ip), vehicle: saline 92 % of control | dose: 20.0 mg/kg/injection, schedule: Q01DX009 (ip), vehicle: saline 103 % of control

C[C@H](CN1CC(=O)NC(=O)C1)N1CC(=O)NC(=O)C1
inactive: dose: 6.25 mg/kg/injection, schedule: Q04DX003 (ip), vehicle: saline 122 % of control | [4] 109 % of control | dose: 12.5 mg/kg/injection, schedule: Q04DX003 (ip), vehicle: saline 102 % of control | [5] 119 % of control | dose: 16.0 mg/kg/injection, schedule: Q01DX009 (ip), vehicle: water 96 % of control | dose: 25.0 mg/kg/injection, schedule: Q04DX003 (ip), vehicle: saline 115 % of control | [6] 112 % of control | dose: 32.0 mg/kg/injection, schedule: Q01DX009 (ip), vehicle: water 109 % of control | dose: 50.0 mg/kg/injection, schedule: Q04DX003 (ip), vehicle: saline 111 % of control | dose: 100.0 mg/kg/injection, schedule: Q04DX003 (ip), vehicle: saline 115 % of control | dose: 200.0 mg/kg/injection, schedule: Q04DX003 (ip), vehicle: saline 122 % of control | dose: 800.0 mg/kg/injection, schedule: Q04DX003 (ip), vehicle: saline 115 % of control
